Assay results as given in the supplement of paper PMC10307832.

What was measured:
[1] = compound: CC1=C(N=C(N=C1N)[C@H](CC(=O)N)NC[C@@H](C(=O)N)N)C(=O)N[C@@H]([C@H](C2=CN=CN2)OC3C(C(C(C(O3)CO)O)O)OC4C(C(C(C(O4)CO)O)OC(=O)N)O)C(=O)N[C@H](C)[C@H]([C@H](C)C(=O)N[C@@H]([C@@H](C)O)C(=O)NCCC5=NC(=CS5)C6=NC(=CS6)C(=O)NCCC[S+](C)C)O [Bleomycin] + CC(=O)Nc1cccc(-n2c(=O)n(C3CC3)c(=O)c3c(Nc4ccc(I)cc4F)n(C)c(=O)c(C)c32)c1 [Trametinib] (partner 0.02 µM); experiment: relative viability (nuclei count vs DMSO), 5 days (fraction); higher = more cells survive; settings: main component drawn
Outline: (§1)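 Lung cancer cell lines, seeded in 1536-well plates, were treated the following day by pin tool with a single drug or with five library-drug doses (not always all listed) in √10 steps on top of a fixed anchor-drug dose. Cells were fixed and nuclei stained in one step after 5 days, and nuclei were counted. Relative viability is the nuclei count for treated wells divided by that for vehicle wells, reported as medians of duplicate plates.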

[2] = compound: COc1cc([C@@H]2c3cc4c(cc3[C@@H](O[C@@H]3O[C@@H]5CO[C@@H](C)O[C@H]5[C@H](O)[C@H]3O)[C@H]3COC(=O)[C@H]23)OCO4)cc(OC)c1O [Etoposide] + Cc1nc(Nc2ncc(C(=O)Nc3c(C)cccc3Cl)s2)cc(N2CCN(CCO)CC2)n1 [Dasatinib] (partner 0.075 µM); experiment: as above
Outline: as §1

**Q.** With NCI-H3122 as the cell line, how does the relative viability ([1]; first compound 0.01 µM) read?
**A.** 0.257

**Q.** What about the relative viability ([1]; first compound 0.03162 µM) of the same cell line?
**A.** 0.247

**Q.** And the relative viability ([1]; first compound 0.1 µM)?
**A.** 0.231

**Q.** And the relative viability ([1]; first compound 0.3162 µM)?
**A.** 0.185

**Q.** What about the relative viability ([1]; first compound 1 µM) of the same cell line?
**A.** 0.187

**Q.** And the relative viability ([2]; first compound 0.01 µM)?
**A.** 0.749

**Q.** What about the relative viability ([2]; first compound 0.03162 µM) of the same cell line?
**A.** 0.775

**Q.** What about the relative viability ([2]; first compound 0.1 µM) of the same cell line?
**A.** 0.112

**Q.** What about the relative viability ([2]; first compound 0.3162 µM) of the same cell line?
**A.** 0.817

**Q.** What about the relative viability ([2]; first compound 1 µM) of the same cell line?
**A.** 0.223

**Q.** How did the relative viability ([1]; first compound 0.01 µM) turn out when NCI-H358 was run?
**A.** 0.138

**Q.** And the relative viability ([1]; first compound 0.03162 µM)?
**A.** 0.138

**Q.** And the relative viability ([1]; first compound 0.1 µM)?
**A.** 0.127

**Q.** What about the relative viability ([1]; first compound 0.3162 µM) of the same cell line?
**A.** 0.138

**Q.** What about the relative viability ([1]; first compound 1 µM) of the same cell line?
**A.** 0.108

**Q.** What about the relative viability ([2]; first compound 0.01 µM) of the same cell line?
**A.** 0.166

**Q.** What about the relative viability ([2]; first compound 0.03162 µM) of the same cell line?
**A.** 0.179

**Q.** And the relative viability ([2]; first compound 0.1 µM)?
**A.** 0.112

**Q.** What about the relative viability ([2]; first compound 0.3162 µM) of the same cell line?
**A.** 0.149

**Q.** What about the relative viability ([2]; first compound 1 µM) of the same cell line?
**A.** 0.106

**Q.** With NCI-H1944 as the cell line, how does the relative viability ([1]; first compound 0.01 µM) read?
**A.** 0.319

**Q.** What about the relative viability ([1]; first compound 0.03162 µM) of the same cell line?
**A.** 0.255

**Q.** And the relative viability ([1]; first compound 0.1 µM)?
**A.** 0.276

**Q.** And the relative viability ([1]; first compound 0.3162 µM)?
**A.** 0.234

**Q.** What about the relative viability ([1]; first compound 1 µM) of the same cell line?
**A.** 0.165

**Q.** And the relative viability ([2]; first compound 0.01 µM)?
**A.** 0.213

**Q.** What about the relative viability ([2]; first compound 0.03162 µM) of the same cell line?
**A.** 0.23

**Q.** And the relative viability ([2]; first compound 0.1 µM)?
**A.** 0.159

**Q.** What about the relative viability ([2]; first compound 0.3162 µM) of the same cell line?
**A.** 0.189

**Q.** What about the relative viability ([2]; first compound 1 µM) of the same cell line?
**A.** 0.102

**Q.** With NCI-H2342 as the cell line, how does the relative viability ([1]; first compound 0.01 µM) read?
**A.** 0.896

**Q.** What about the relative viability ([1]; first compound 0.03162 µM) of the same cell line?
**A.** 0.737

**Q.** And the relative viability ([1]; first compound 0.1 µM)?
**A.** 0.758

**Q.** And the relative viability ([1]; first compound 0.3162 µM)?
**A.** 0.577

**Q.** What about the relative viability ([1]; first compound 1 µM) of the same cell line?
**A.** 0.576

**Q.** What about the relative viability ([2]; first compound 0.01 µM) of the same cell line?
**A.** 0.317

**Q.** What about the relative viability ([2]; first compound 0.03162 µM) of the same cell line?
**A.** 0.315

**Q.** And the relative viability ([2]; first compound 0.1 µM)?
**A.** 0.3

**Q.** And the relative viability ([2]; first compound 0.3162 µM)?
**A.** 0.229

**Q.** What about the relative viability ([2]; first compound 1 µM) of the same cell line?
**A.** 0.254

**Q.** EPLC-272H was tested. Which relative viability ([1]; first compound 0.01 µM) did it give?
**A.** 0.302

**Q.** And the relative viability ([1]; first compound 0.03162 µM)?
**A.** 0.256

**Q.** And the relative viability ([1]; first compound 0.1 µM)?
**A.** 0.207

**Q.** And the relative viability ([1]; first compound 0.3162 µM)?
**A.** 0.193

**Q.** What about the relative viability ([1]; first compound 1 µM) of the same cell line?
**A.** 0.184

**Q.** What about the relative viability ([2]; first compound 0.01 µM) of the same cell line?
**A.** 0.373

**Q.** And the relative viability ([2]; first compound 0.03162 µM)?
**A.** 0.342

**Q.** What about the relative viability ([2]; first compound 0.1 µM) of the same cell line?
**A.** 0.222

**Q.** What about the relative viability ([2]; first compound 0.3162 µM) of the same cell line?
**A.** 0.354

**Q.** What about the relative viability ([2]; first compound 1 µM) of the same cell line?
**A.** 0.245

**Q.** Which results are given for NCI-H1915?
**A.** relative viability ([1]; first compound 0.01 µM): 0.282; relative viability ([1]; first compound 0.03162 µM): 0.295; relative viability ([1]; first compound 0.1 µM): 0.215; relative viability ([1]; first compound 0.3162 µM): 0.165; relative viability ([1]; first compound 1 µM): 0.128; relative viability ([2]; first compound 0.01 µM): 0.31; relative viability ([2]; first compound 0.03162 µM): 0.413; relative viability ([2]; first compound 0.1 µM): 0.236; relative viability ([2]; first compound 0.3162 µM): 0.326; relative viability ([2]; first compound 1 µM): 0.286

**Q.** How did the relative viability ([1]; first compound 0.01 µM) turn out when NCI-H647 was run?
**A.** 0.35

**Q.** What about the relative viability ([1]; first compound 0.03162 µM) of the same cell line?
**A.** 0.217

**Q.** What about the relative viability ([1]; first compound 0.1 µM) of the same cell line?
**A.** 0.158

**Q.** And the relative viability ([1]; first compound 0.3162 µM)?
**A.** 0.114

**Q.** And the relative viability ([1]; first compound 1 µM)?
**A.** 0.111

**Q.** And the relative viability ([2]; first compound 0.01 µM)?
**A.** 0.157

**Q.** What about the relative viability ([2]; first compound 0.03162 µM) of the same cell line?
**A.** 0.161

**Q.** What about the relative viability ([2]; first compound 0.1 µM) of the same cell line?
**A.** 0.174

**Q.** And the relative viability ([2]; first compound 0.3162 µM)?
**A.** 0.145

**Q.** And the relative viability ([2]; first compound 1 µM)?
**A.** 0.036

**Q.** How did the relative viability ([1]; first compound 0.01 µM) turn out when NCI-H441 was run?
**A.** 0.398

**Q.** And the relative viability ([1]; first compound 0.03162 µM)?
**A.** 0.408

**Q.** What about the relative viability ([1]; first compound 0.1 µM) of the same cell line?
**A.** 0.431

**Q.** And the relative viability ([1]; first compound 0.3162 µM)?
**A.** 0.298

**Q.** What about the relative viability ([1]; first compound 1 µM) of the same cell line?
**A.** 0.357

**Q.** What about the relative viability ([2]; first compound 0.01 µM) of the same cell line?
**A.** 0.58

**Q.** What about the relative viability ([2]; first compound 0.03162 µM) of the same cell line?
**A.** 0.677

**Q.** And the relative viability ([2]; first compound 0.1 µM)?
**A.** 0.398

**Q.** And the relative viability ([2]; first compound 0.3162 µM)?
**A.** 0.285

**Q.** And the relative viability ([2]; first compound 1 µM)?
**A.** 0.147

**Q.** What does the source list for NCI-H23?
**A.** relative viability ([1]; first compound 0.01 µM): 0.226; relative viability ([1]; first compound 0.03162 µM): 0.321; relative viability ([1]; first compound 0.1 µM): 0.189; relative viability ([1]; first compound 0.3162 µM): 0.161; relative viability ([1]; first compound 1 µM): 0.144; relative viability ([2]; first compound 0.01 µM): 0.805; relative viability ([2]; first compound 0.03162 µM): 0.821; relative viability ([2]; first compound 0.1 µM): 0.504; relative viability ([2]; first compound 0.3162 µM): 0.384; relative viability ([2]; first compound 1 µM): 0.185

**Q.** How did the relative viability ([1]; first compound 0.01 µM) turn out when NCI-H522 was run?
**A.** 0.776

**Q.** And the relative viability ([1]; first compound 0.03162 µM)?
**A.** 0.705

**Q.** What about the relative viability ([1]; first compound 0.1 µM) of the same cell line?
**A.** 0.763

**Q.** What about the relative viability ([1]; first compound 0.3162 µM) of the same cell line?
**A.** 0.433

**Q.** What about the relative viability ([1]; first compound 1 µM) of the same cell line?
**A.** 0.379

**Q.** What about the relative viability ([2]; first compound 0.01 µM) of the same cell line?
**A.** 0.861

**Q.** And the relative viability ([2]; first compound 0.03162 µM)?
**A.** 0.883

**Q.** And the relative viability ([2]; first compound 0.1 µM)?
**A.** 0.805

**Q.** What about the relative viability ([2]; first compound 0.3162 µM) of the same cell line?
**A.** 0.895

**Q.** What about the relative viability ([2]; first compound 1 µM) of the same cell line?
**A.** 0.874

**Q.** NCI-H650 was tested. Which relative viability ([1]; first compound 0.01 µM) did it give?
**A.** 0.909

**Q.** And the relative viability ([1]; first compound 0.03162 µM)?
**A.** 0.993

**Q.** And the relative viability ([1]; first compound 0.1 µM)?
**A.** 0.8

**Q.** And the relative viability ([1]; first compound 0.3162 µM)?
**A.** 0.352

**Q.** What about the relative viability ([1]; first compound 1 µM) of the same cell line?
**A.** 0.18

**Q.** And the relative viability ([2]; first compound 0.01 µM)?
**A.** 0.457

**Q.** And the relative viability ([2]; first compound 0.03162 µM)?
**A.** 0.472

**Q.** What about the relative viability ([2]; first compound 0.1 µM) of the same cell line?
**A.** 0.342

**Q.** What about the relative viability ([2]; first compound 0.3162 µM) of the same cell line?
**A.** 0.372

**Q.** What about the relative viability ([2]; first compound 1 µM) of the same cell line?
**A.** 0.215

**Q.** Which results are given for SK-MES-1?
**A.** relative viability ([1]; first compound 0.01 µM): 0.501; relative viability ([1]; first compound 0.03162 µM): 0.532; relative viability ([1]; first compound 0.1 µM): 0.527; relative viability ([1]; first compound 0.3162 µM): 0.28; relative viability ([1]; first compound 1 µM): 0.219; relative viability ([2]; first compound 0.01 µM): 0.315; relative viability ([2]; first compound 0.03162 µM): 0.388; relative viability ([2]; first compound 0.1 µM): 0.429; relative viability ([2]; first compound 0.3162 µM): 0.286; relative viability ([2]; first compound 1 µM): 0.131

**Q.** How did the relative viability ([1]; first compound 0.01 µM) turn out when NCI-H2170 was run?
**A.** 0.89

**Q.** What about the relative viability ([1]; first compound 0.03162 µM) of the same cell line?
**A.** 0.89

**Q.** What about the relative viability ([1]; first compound 0.1 µM) of the same cell line?
**A.** 0.808

**Q.** And the relative viability ([1]; first compound 0.3162 µM)?
**A.** 0.559

**Q.** And the relative viability ([1]; first compound 1 µM)?
**A.** 0.468

**Q.** And the relative viability ([2]; first compound 0.01 µM)?
**A.** 0.678

**Q.** And the relative viability ([2]; first compound 0.03162 µM)?
**A.** 0.658

**Q.** And the relative viability ([2]; first compound 0.1 µM)?
**A.** 0.353

**Q.** And the relative viability ([2]; first compound 0.3162 µM)?
**A.** 0.619

**Q.** And the relative viability ([2]; first compound 1 µM)?
**A.** 0.401
